Results: patent publication US7138361B2, “Herbicidal heterocycles” (E. I. du Pont de Nemours and Company, priority 2000, dated 2006)

Assays:
Type in all cases: in vivo
[1] = tested on: Surinam grass (Brachiaria decumbens); experiment: Test C postemergence
How it was run: (§1)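 Preemergence: seeds sown then treated. Postemergence: plants 2–18 cm, 1- to 4-leaf. Both with surfactant-containing solvent formulation; visual injury scored 0–100 after 12–14 d.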

[2] = tested on: bermudagrass (Cynodon dactylon); experiment: Test C postemergence
How it was run: as §1

[3] = tested on: chickweed (Stellaria media); experiment: Test C postemergence
How it was run: as §1

[4] = tested on: cocklebur (Xanthium strumarium); experiment: Test C postemergence
How it was run: as §1

[5] = tested on: common ragweed (Ambrosia elatior); experiment: Test C postemergence
How it was run: as §1

corn (Zea mays) = experiment: Test C postemergence
How it was run: as §1

[6] = tested on: crabgrass (Digitaria sanguinalis); experiment: Test C postemergence
How it was run: as §1

[7] = tested on: giant foxtail (Setaria faberii); experiment: Test C postemergence; details: scale 0 to 100 (0 no effect, 100 complete control)
How it was run: as §1

[8] = tested on: goosegrass (Eleusine indica); experiment: Test C postemergence
How it was run: as §1

[9] = tested on: johnsongrass (Sorghum halepense); experiment: Test C postemergence
How it was run: as §1

kochia (Kochia scoparia) = experiment: Test C postemergence
How it was run: as §1

[10] = tested on: lambsquarters (Chenopodium album); experiment: Test C postemergence
How it was run: as §1

[11] = tested on: morningglory (Ipomoea hederacea); experiment: Test C postemergence
How it was run: as §1

[12] = tested on: pigweed (Amaranthus retroflexus); experiment: Test C postemergence
How it was run: as §1

soybean (Glycine max) = experiment: Test C postemergence
How it was run: as §1

[13] = tested on: velvetleaf (Abutilon theophrasti); experiment: Test C postemergence
How it was run: as §1

[14] = tested on: woolly cupgrass (Eriochloa villosa); experiment: Test C postemergence
How it was run: as §1

[15] = tested on: yellow nutsedge (Cyperus esculentus); experiment: Test C postemergence
How it was run: as §1

Sunflower [16] = experiment: Test C preemergence; details: Rate 500 g/ha, visual evaluation after 12 to 14 days
Sunflower [17] = experiment: Test C preemergence; details: Rate 250 g/ha, scale 0 to 100, 0 no effect, 100 complete control
Sunflower [18] = experiment: Test C preemergence; details: Rate 62 g/ha, scale 0 to 100
[19] = Rate 125 g/ha, scale 0 to 100, 0 no effect, 100 complete control
[20] = Rate 250 g/ha, scale 0 to 100 (0 no effect, 100 complete control)
[21] = Rate 500 g/ha, scale 0 to 100 (0 no effect, 100 complete control)

COc1cc(N2CCC(n3ccc(C(C)C)n3)C2=O)ccc1Br (stereo not drawn) [Compound 140]
20: Plant response rating, Goosegrass ([8]; Rate 62 g/ha, scale 0 to 100) | Plant response rating, Velvetleaf ([13]; Rate 62 g/ha, scale 0 to 100) | Plant response rating, Velvetleaf ([13]; scale 0 to 100) | Plant response rating, Nutsedge [15, 20]
30: Plant response rating, Surinam grass ([1]; Rate 62 g/ha, scale 0 to 100) | Plant response rating, Surinam grass [1, 19] | Plant response rating, Bermudagrass ([2]; Rate 62 g/ha, scale 0 to 100) | Plant response rating, Johnsongrass ([9]; Rate 62 g/ha, scale 0 to 100) | Plant response rating, Johnsongrass ([9]; rate not given, scale 0 to 100) | Plant response rating, Pigweed ([12]; Rate 62 g/ha, scale 0 to 100) | Plant response rating, Sunflower (Sunflower [18])
50: Plant response rating, Ragweed, Common ([5]; Rate 62 g/ha, scale 0 to 100) | Plant response rating, Johnsongrass [9, 20] | Plant response rating, Johnsongrass [9, 21]
70: Plant response rating, Bermudagrass [2, 20] | Plant response rating, Crabgrass [6, 20] | Plant response rating, Crabgrass [6, 21] | Plant response rating, Soybean (soybean (Glycine max); Rate 62 g/ha, scale 0 to 100) | Plant response rating, Velvetleaf [13, 20] | Plant response rating, Velvetleaf [13, 21] | Plant response rating, Cupgrass, Woolly [14, 20] | Plant response rating, Cupgrass, Woolly [14, 21]
80: Plant response rating, Cocklebur [4, 20] | Plant response rating, Goosegrass [8, 20] | Plant response rating, Lambsquarters ([10]; Rate 62 g/ha, scale 0 to 100) | Plant response rating, Pigweed [12, 20] | Plant response rating, Pigweed [12, 21]
100: Plant response rating, Chickweed [3, 19] | Plant response rating, Cocklebur [4, 21] | Plant response rating, Lambsquarters [10, 21] | Plant response rating, Morningglory [11, 20] | Plant response rating, Morningglory [11, 21]
90: Plant response rating, Surinam grass [1, 20] | Plant response rating, Bermudagrass [2, 21] | Plant response rating, Chickweed ([3]; Rate 62 g/ha, scale 0 to 100) | Plant response rating, Ragweed, Common [5, 20] | Plant response rating, Ragweed, Common [5, 21] | Plant response rating, Foxtail, Giant ([7]; Rate 250 g/ha) | Plant response rating, Foxtail, Giant ([7]; Rate 500 g/ha) | Plant response rating, Kochia (kochia (Kochia scoparia); [20]) | Plant response rating, Kochia (kochia (Kochia scoparia); [21]) | Plant response rating, Lambsquarters [10, 20] | Plant response rating, Soybean (soybean (Glycine max); [20]) | Plant response rating, Soybean (soybean (Glycine max); [21]) | Plant response rating (0 to 100), Sunflower (Sunflower [16])
0: Plant response rating, Corn (corn (Zea mays); Rate 62 g/ha, scale 0 to 100) | Plant response rating, Corn (corn (Zea mays); [20]) | Plant response rating, Corn (corn (Zea mays); [21]) | Plant response rating, Corn (corn (Zea mays); scale 0 to 100) | Plant response rating, Nutsedge ([15]; Rate 62 g/ha, scale 0 to 100)
60: Plant response rating, Morningglory ([11]; Rate 62 g/ha, scale 0 to 100) | Plant response rating, Sunflower (Sunflower [17])
40: Plant response rating, Bermudagrass [2, 19] | Plant response rating, Cocklebur ([4]; Rate 62 g/ha, scale 0 to 100) | Plant response rating, Crabgrass ([6]; Rate 62 g/ha, scale 0 to 100) | Plant response rating, Kochia (kochia (Kochia scoparia); Rate 62 g/ha, scale 0 to 100) | Plant response rating, Cupgrass, Woolly ([14]; Rate 62 g/ha, scale 0 to 100)
